Test results published in PubChem BioAssay (NCI).
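Protocol summary: plate cells (96-well), add compound at 5 concentrations, incubate 48 h, interpolate endpoints linearly. TGI denotes the concentration required for complete inhibition of growth.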 Where a SMILES comes first, the peptide text is derived from it. [ ]: non-standard residue; d: D form. The star is where a group is joined. hSer = N[CH](CCO)C(=O)O; Boc = CC(C)(C)OC(=O)*

Assays:
Experiment in all cases: growth of human tumour cells (NCI), 48 h
SK-MEL-28 melanoma = test system: SK-MEL-28 melanoma
NCI/ADR-RES ovarian = test system: NCI/ADR-RES ovarian
EKVX NSCLC = test system: EKVX NSCLC
T-47D breast = test system: T-47D breast
A498 renal = test system: A498 renal
SNB-75 CNS = test system: SNB-75 CNS
SF-295 CNS = test system: SF-295 CNS
SN12C renal = test system: SN12C renal
MDA-N = test system: MDA-N
IGROV1 ovarian = test system: IGROV1 ovarian

| SMILES | TGI (SK-MEL-28 melanoma) | TGI (NCI/ADR-RES ovarian) | TGI (EKVX NSCLC) | TGI (T-47D breast) | TGI (A498 renal) | TGI (SNB-75 CNS) | TGI (SF-295 CNS) | TGI (SN12C renal) | TGI (MDA-N) | TGI (IGROV1 ovarian) |
| --- | --- | --- | --- | --- | --- | --- | --- | --- | --- | --- |
| NCCC1(N)CCNCC1 | > 100 µM | > 100 µM | > 100 µM | > 100 µM | > 100 µM | > 100 µM | > 100 µM | > 100 µM | > 100 µM | > 100 µM |
| CCOC(=O)c1cc2cc(Cc3ccc4[nH]c(C(=O)OCC)cc4c3)ccc2[nH]1 | > 100 µM | 52.6 µM | 78.9 µM | > 100 µM | 36.4 µM | 27.9 µM | 55.5 µM | > 100 µM | > 100 µM | 35.7 µM |
| N#Cc1c(-c2ccco2)c2c(n(C3OC(CO)C(O)C(O)C3O)c1=S)CCCC2 (configuration not stated) | > 100 µM | > 100 µM | > 100 µM | > 100 µM | > 100 µM | 0.0981 µM | > 100 µM | > 100 µM | > 100 µM | > 100 µM |
| COc1ccc(-n2c(CCCC(=O)O)nc3c2C(=O)c2ccccc2C3=O)cc1 | > 100 µM | > 100 µM | > 100 µM | > 100 µM | > 100 µM | > 100 µM | > 100 µM | > 100 µM | > 100 µM | > 100 µM |
| CC1(C)CCc2c(cc3c(c2O)CCC(C)(C)O3)O1 | > 100 µM | > 100 µM | > 100 µM | > 100 µM | > 100 µM | > 100 µM | > 100 µM | > 100 µM | > 100 µM | > 100 µM |
| C[N+]1(C)CC=C(N2CCOCC2)CC1 | > 10 µM | > 10 µM | > 10 µM | > 10 µM | > 10 µM | > 10 µM | > 10 µM | > 10 µM | > 10 µM | > 10 µM |
| N#Cc1[nH]c(=O)n(-c2ccc([N+](=O)[O-])cc2)c1N | > 10 µM | > 10 µM | > 10 µM | > 10 µM | > 10 µM | > 10 µM | > 10 µM | > 10 µM | > 10 µM | > 10 µM |
| CCOC(=O)C1(Cc2ccc(C)cc2)Cc2ccc(C)cc2C1=O (configuration not stated) | > 100 µM | 32.5 µM | > 100 µM | > 74.6 µM | > 79.1 µM | > 100 µM | > 86.5 µM | > 100 µM | 6.42 µM | > 100 µM |
| Cc1ccc(N=Nc2c(O)c3ccccc3[nH]c2=O)c(S(=O)(=O)N(C)C)c1 | > 100 µM | > 100 µM | > 100 µM | > 100 µM | > 100 µM | > 100 µM | > 100 µM | > 100 µM | > 100 µM | > 100 µM |
| C/C(=N\Nc1nc2cc(C)ccc2s1)c1ccccn1 | 12.1 µM | 0.844 µM | > 21 µM | > 89.7 µM | 10.6 µM | 22.7 µM | > 40.9 µM | 8.85 µM | > 100 µM |  |
| COC(=O)C1Cc2c(C)cccc2C1=O (configuration not stated) | > 100 µM | > 100 µM | > 100 µM | > 100 µM | > 100 µM | > 100 µM | > 100 µM | > 100 µM | > 100 µM | > 100 µM |
| CN(NC(=O)c1ccco1)C1=NCCCCN1 | > 100 µM | > 100 µM | > 100 µM | > 100 µM |  | > 100 µM | > 100 µM | > 100 µM | > 100 µM | > 100 µM |
| CCOC(=O)C(NCc1ccccc1)(NC(=O)c1ccccc1)C(F)(F)F (configuration not stated) | > 100 µM | > 100 µM | > 100 µM | > 100 µM |  | > 100 µM | > 100 µM | > 100 µM | > 100 µM | > 100 µM |
| CCC1(O)C=CC(=O)C=C1 | 57.6 µM | > 66.8 µM | > 100 µM | 67.7 µM | 67.9 µM | > 96.1 µM | > 100 µM | > 100 µM | > 100 µM | 40.6 µM |
| O=C1Nc2ccccc2C(=O)OC(Cc2ccccc2)=Nc2ccccc21 | > 100 µM | > 100 µM | > 100 µM | > 100 µM |  | > 100 µM | > 100 µM | > 100 µM | > 100 µM | > 100 µM |
| Nc1c(Br)cc(-c2cc(Br)c(N)c(Br)c2)cc1Br | > 100 µM | > 100 µM | > 100 µM | > 100 µM |  | > 100 µM | > 100 µM | > 100 µM | > 100 µM | > 100 µM |
| CN(C)CC1CCC/C(=C\c2ccc(N(C)C)cc2)C1=O (configuration not stated) | 19.1 µM | 65.3 µM | 30.4 µM | 4.11 µM | 30.9 µM | 30.7 µM | 32.2 µM | 29.6 µM | 19.6 µM | 11.8 µM |

| SMILES | TGI (SK-MEL-28 melanoma) | TGI (NCI/ADR-RES ovarian) | TGI (EKVX NSCLC) | TGI (T-47D breast) | TGI (A498 renal) | TGI (SNB-75 CNS) | TGI (SF-295 CNS) | TGI (SN12C renal) | TGI (MDA-N) | TGI (IGROV1 ovarian) |
| --- | --- | --- | --- | --- | --- | --- | --- | --- | --- | --- |
| O=c1cnn(C2OC(CO)C(O)C(F)C2O)c(=O)[nH]1 (configuration not stated) | > 100 µM | > 100 µM | > 100 µM | > 100 µM | > 100 µM |  | > 100 µM | > 100 µM | > 100 µM | > 100 µM |
| COc1ccc2c(c1O)-c1c(OC)c(OC)cc3c1[C@H](C2)[N+](C)(C)CC3 | > 100 µM | > 100 µM | > 100 µM | > 100 µM | > 100 µM | > 100 µM | > 100 µM | > 100 µM | > 100 µM | > 100 µM |
| Oc1ccc(-c2cc(-c3c(O)cc(O)cc3O)on2)cc1 | > 100 µM | > 100 µM | > 100 µM | > 100 µM |  | > 100 µM | > 100 µM | > 100 µM | > 100 µM | > 100 µM |
| COCCC(NC(=O)C(CC(C)C)NC(=O)OC(C)(C)C)C(N)=O (stereo not drawn) (Boc-Leu-[hSer](Me)-NH2; configuration not given here) | > 100 µM | > 100 µM | > 100 µM | > 100 µM | > 100 µM | > 100 µM | > 100 µM | > 100 µM | > 100 µM | > 100 µM |
| CCOC(=O)CC(C)C(C#N)(OP1(=O)OC(c2ccccc2)C(C)N1C)c1ccccc1 (configuration not stated) | > 100 µM | > 100 µM | > 100 µM | > 100 µM | > 100 µM |  | > 100 µM | > 100 µM | > 100 µM | > 100 µM |
| COc1ccc(C2CC(c3cc4c(C)c(C(=O)c5ccccc5)oc4cc3O)=Nc3ccccc3S2)cc1OC (configuration not stated) | > 100 µM | > 100 µM | > 100 µM | > 85.8 µM | > 87 µM | > 100 µM | > 100 µM | > 100 µM | > 61.6 µM | > 100 µM |
| COC(=O)C(=O)C(C(=O)C(=O)Nc1ccccc1C(=O)OC)c1nc2ccc(C(=O)c3ccccc3)cc2[nH]c1=O (configuration not stated) | > 100 µM | > 100 µM | > 100 µM | > 100 µM | > 100 µM | > 100 µM | > 100 µM | > 100 µM | > 100 µM | > 100 µM |
| COC1/C=C\C=C(/C)C(=O)NC2=CC(=O)C(NCCCl)=C(CC(C)CC(OC)C(O)C(C)/C=C(/C)C1OC(N)=O)C2=O (configuration not stated) | 2.52 µM | 31.1 µM | 22.7 µM | 20.4 µM | 4.55 µM | 3.81 µM | 8.39 µM | 2.8 µM | 12.3 µM | 13.6 µM |
| CC(C)CN1CN(c2ccccc2)C2(CCN(CC(C)(c3ccc(F)cc3)C3OCCO3)CC2)C1=O (configuration not stated) | 10 µM | 37.4 µM | 19.8 µM | 15.3 µM |  | 20 µM | 10.9 µM | 19.1 µM | 19.6 µM |  |
| CSc1n[nH]c(N)c1C(=O)Nc1ccc(Cl)cc1 | > 100 µM | > 100 µM | > 100 µM | > 100 µM | > 100 µM | > 100 µM |  | > 100 µM | > 100 µM | > 100 µM |
| CCOC(=O)NNC(=O)NCCNC(=O)NNC(=O)OCC | > 100 µM | > 100 µM | > 100 µM | > 100 µM | > 100 µM | > 100 µM |  | > 100 µM | > 100 µM |  |
| O=S(=O)(O)c1ccc(NN(c2c(O)ccc3ccccc23)S(=O)(=O)O)cc1 | > 100 µM | > 100 µM | > 100 µM | > 100 µM | > 100 µM |  | > 100 µM | > 100 µM | > 100 µM | > 100 µM |
| COc1ccc(C2SCC(=O)N2N=C2NC(=O)CC(=O)N2)cc1 (configuration not stated) | > 100 µM | > 100 µM |  | > 100 µM | > 100 µM | > 100 µM | > 100 µM | > 100 µM | > 100 µM | > 100 µM |
| Cc1cc(-c2ccc(C(=O)C(Cl)(Cl)Cl)[nH]2)on1 | > 100 µM | 94.3 µM | > 100 µM | > 100 µM | > 100 µM | > 100 µM | > 100 µM | 43.2 µM | > 100 µM |  |
| CN1CC(c2ccccc2)=Cc2c1ccc(N)c2N=N | > 100 µM | > 100 µM | > 100 µM | > 100 µM |  | > 100 µM | > 100 µM | > 100 µM | > 100 µM | > 100 µM |
| CSc1nc2c(c(N(C)C)n1)C=Nn1c(nc3ccccc31)S2 | > 100 µM | > 100 µM |  | > 100 µM | > 100 µM | > 100 µM | > 100 µM | > 100 µM | > 100 µM | > 100 µM |
